Test results as given in ChEMBL document CHEMBL3217456 (Medchemcomm, 2014).
Active and inactive are the calls of the source. The calls are words filed in the database; no cut-off is given here.

Legend:
[1] = molecular target: Histamine H2 receptor (Cavia porcellus) (UniProt P47747); test: Antagonist activity at guinea pig histamine H2 receptor assessed as reduction of histamine-induced maximal response after 30 mins
[2] = molecular target: T1, Histamine H2 receptor (Cavia porcellus, UniProt P47747); test: Antagonist activity at guinea pig histamine H2 receptor assessed as inhibition of histamine-induced response after 30 mins; conditions: read-out: pA2 (converted)
[3] = molecular target: T2, Histamine H3 receptor (Homo sapiens, UniProt Q9Y5N1); test: Intrinsic activity at human recombinant histamine H3 receptor expressed in Sf9 cells coexpressing Galphai2,Gbeta1gamma2 and RGS4 preincubated for 2 mins before [gamma32P]GTP addition measured after 20 mins by steady-state GTPase activity assay relative to histamine
[4] = molecular target: T3, Histamine H2 receptor (Homo sapiens, UniProt P25021); test: Intrinsic activity at human recombinant histamine H2 receptor-Gsalphas fusion protein expressed in Sf9 cells preincubated for 2 mins before [gamma32P]GTP addition measured after 20 mins by steady-state GTPase activity assay relative to histamine
[5] = molecular target: T2, Histamine H3 receptor; test: Antagonist activity at human recombinant histamine H3 receptor expressed in Sf9 cells coexpressing Galphai2,Gbeta1gamma2 and RGS4 assessed as inhibition of histamine-induced […] hydrolysis preincubated for 2 mins before [gamma32P]GTP addition measured after 20 mins by steady-state GTPase activity assay; format: functional
[6] = molecular target: T4, Histamine H4 receptor (Homo sapiens, UniProt Q9H3N8); test: Antagonist activity at human recombinant histamine H4 receptor-RGS19 fusion protein expressed in Sf9 cells coexpressing Galphai2,Gbeta1gamma2 assessed as inhibition of histamine-induced […] hydrolysis preincubated for 2 mins before [gamma32P]GTP addition measured after 20 mins by steady-state GTPase activity assay; format: functional
[7] = molecular target: T3, Histamine H2 receptor; test: Antagonist activity at human recombinant histamine H2 receptor-Gsalphas fusion protein expressed in Sf9 cells assessed as inhibition of histamine-induced […] hydrolysis preincubated for 2 mins before [gamma32P]GTP addition measured after 20 mins by steady-state GTPase activity assay; format: functional
[8] = molecular target: Histamine H1 receptor (Homo sapiens) (UniProt P35367); test: Antagonist activity at human recombinant histamine H1 receptor expressed in Sf9 cells coexpressing RGS4 assessed as inhibition of histamine-induced […] hydrolysis preincubated for 2 mins before [gamma32P]GTP addition measured after 20 mins by steady-state GTPase activity assay; format: functional
[9] = molecular target: T4, Histamine H4 receptor; test: Intrinsic activity at human recombinant histamine H4 receptor-RGS19 fusion protein expressed in Sf9 cells coexpressing Galphai2,Gbeta1gamma2 assessed as [35S]GTPgammaS binding at 10 uM after 90 mins by liquid scintillation counting relative to histamine; format: functional
[10] = molecular target: Histamine H1 receptor (Homo sapiens) (UniProt P35367); test: Intrinsic activity at human recombinant histamine H1 receptor expressed in Sf9 cells coexpressing RGS4 preincubated for 2 mins before [gamma32P]GTP addition measured after 20 mins by steady-state GTPase activity assay relative to histamine
[11] = molecular target: T2, Histamine H3 receptor; test: Intrinsic activity at human recombinant histamine H3 receptor expressed in Sf9 cells coexpressing Galphai2,Gbeta1gamma2 and RGS4 assessed as [35S]GTPgammaS binding at 10 uM after 90 mins by liquid scintillation counting relative to histamine; format: functional
[12] = molecular target: T4, Histamine H4 receptor; test: Antagonist activity at human recombinant histamine H4 receptor-RGS19 fusion protein expressed in Sf9 cells coexpressing Galphai2,Gbeta1gamma2 assessed as inhibition of histamine-induced [35S]GTPgammaS binding after 90 mins by liquid scintillation counting; format: functional
[13] = molecular target: T3, Histamine H2 receptor; test: Agonist activity at human recombinant histamine H2 receptor-Gsalphas fusion protein expressed in Sf9 cells assessed as [35S]GTPgammaS binding after 90 mins by liquid scintillation counting; format: functional
[14] = molecular target: T2, Histamine H3 receptor; test: Antagonist activity at human recombinant histamine H3 receptor expressed in Sf9 cells coexpressing Galphai2,Gbeta1gamma2 and RGS4 assessed as inhibition of histamine-induced [35S]GTPgammaS binding after 90 mins by liquid scintillation counting; format: functional
[15] = molecular target: Histamine H1 receptor (Homo sapiens) (UniProt P35367); conditions: Sf9
[16] = molecular target: T4, Histamine H4 receptor; test: Agonist activity at human recombinant histamine H4 receptor-RGS19 fusion protein expressed in Sf9 cells coexpressing Galphai2,Gbeta1gamma2 assessed as [35S]GTPgammaS binding after 90 mins by liquid scintillation counting; format: functional
[17] = molecular target: T4, Histamine H4 receptor; test: Intrinsic activity at human recombinant histamine H4 receptor-RGS19 fusion protein expressed in Sf9 cells coexpressing Galphai2,Gbeta1gamma2 preincubated for 2 mins before [gamma32P]GTP addition measured after 20 mins by steady-state GTPase activity assay relative to histamine
[18] = molecular target: Histamine H1 receptor (Cavia porcellus, UniProt P31389); test: Antagonist activity at guinea pig ileum histamine H1 receptor assessed as inhibition of histamine-induced response after 10 to 15 mins; format: tissue-based; conditions: read-out: pA2 (converted)
[19] = molecular target: T2, Histamine H3 receptor; test: Agonist activity at human recombinant histamine H3 receptor expressed in Sf9 cells coexpressing Galphai2,Gbeta1gamma2 and RGS4 assessed as [35S]GTPgammaS binding after 90 mins by liquid scintillation counting; format: functional
[20] = molecular target: T4, Histamine H4 receptor; test: Agonist activity at human recombinant histamine H4 receptor-RGS19 fusion protein expressed in Sf9 cells coexpressing Galphai2,Gbeta1gamma2 preincubated for 2 mins before [gamma32P]GTP addition measured after 20 mins by steady-state GTPase activity assay
[21] = molecular target: T3, Histamine H2 receptor; test: Intrinsic activity at human recombinant histamine H2 receptor-Gsalphas fusion protein expressed in Sf9 cells assessed as [35S]GTPgammaS binding at 10 uM after 90 mins by liquid scintillation counting relative to histamine; format: functional
[22] = molecular target: T3, Histamine H2 receptor; test: Antagonist activity at human recombinant histamine H2 receptor-Gsalphas fusion protein expressed in Sf9 cells assessed as inhibition of histamine-induced [35S]GTPgammaS binding after 90 mins by liquid scintillation counting; format: functional
[23] = molecular target: T1, Histamine H2 receptor; test: Agonist activity at guinea pig atrium histamine H2 receptor assessed as potentiation of histamine-induced response after 30 mins; parameters: species or system Cardiac atrium
[24] = molecular target: Histamine H2 receptor (Cavia porcellus) (UniProt P47747); test: Agonist activity at guinea pig histamine H2 receptor assessed as potentiation of histamine-induced response after 30 mins relative to histamine

T1 sequence (P47747 whole entry): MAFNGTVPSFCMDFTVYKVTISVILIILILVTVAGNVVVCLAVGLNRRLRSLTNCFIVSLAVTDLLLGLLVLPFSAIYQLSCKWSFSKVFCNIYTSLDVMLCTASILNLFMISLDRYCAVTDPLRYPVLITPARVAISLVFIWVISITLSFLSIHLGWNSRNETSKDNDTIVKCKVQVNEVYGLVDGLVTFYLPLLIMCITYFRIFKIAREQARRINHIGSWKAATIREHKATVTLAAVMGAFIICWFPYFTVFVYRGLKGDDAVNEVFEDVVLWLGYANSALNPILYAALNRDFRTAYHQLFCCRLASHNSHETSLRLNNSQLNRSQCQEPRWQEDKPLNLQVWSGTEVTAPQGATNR
Chain of Histamine H2 receptor (Cavia porcellus) (P47747 whole entry): as above
T2 sequence (Q9Y5N1 whole entry, the tested form may be a part): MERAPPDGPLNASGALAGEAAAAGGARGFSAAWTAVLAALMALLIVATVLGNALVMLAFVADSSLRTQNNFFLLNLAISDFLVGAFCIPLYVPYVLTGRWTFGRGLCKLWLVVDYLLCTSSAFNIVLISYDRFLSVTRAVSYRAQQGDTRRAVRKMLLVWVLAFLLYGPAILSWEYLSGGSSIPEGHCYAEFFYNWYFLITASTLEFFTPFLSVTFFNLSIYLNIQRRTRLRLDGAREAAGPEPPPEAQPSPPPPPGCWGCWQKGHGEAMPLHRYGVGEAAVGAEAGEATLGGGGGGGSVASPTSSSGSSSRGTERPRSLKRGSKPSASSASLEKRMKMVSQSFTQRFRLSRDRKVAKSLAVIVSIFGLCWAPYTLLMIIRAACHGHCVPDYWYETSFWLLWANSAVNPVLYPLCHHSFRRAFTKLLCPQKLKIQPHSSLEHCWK
Chain of Histamine H1 receptor (Homo sapiens) (P35367 whole entry, the tested form may be a part): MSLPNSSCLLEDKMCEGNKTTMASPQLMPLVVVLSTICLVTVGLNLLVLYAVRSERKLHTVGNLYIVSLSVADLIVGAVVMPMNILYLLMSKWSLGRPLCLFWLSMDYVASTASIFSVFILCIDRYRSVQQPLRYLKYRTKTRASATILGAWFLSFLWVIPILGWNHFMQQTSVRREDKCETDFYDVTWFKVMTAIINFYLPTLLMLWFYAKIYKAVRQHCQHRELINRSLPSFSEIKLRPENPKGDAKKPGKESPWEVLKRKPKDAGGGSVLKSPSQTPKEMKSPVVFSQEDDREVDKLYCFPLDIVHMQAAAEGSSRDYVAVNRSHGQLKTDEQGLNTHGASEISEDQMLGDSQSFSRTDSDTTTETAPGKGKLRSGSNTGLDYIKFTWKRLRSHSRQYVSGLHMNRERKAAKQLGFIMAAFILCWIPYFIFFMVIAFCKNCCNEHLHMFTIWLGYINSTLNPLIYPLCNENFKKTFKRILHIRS
T4 sequence (Q9H3N8 whole entry, the tested form may be a part): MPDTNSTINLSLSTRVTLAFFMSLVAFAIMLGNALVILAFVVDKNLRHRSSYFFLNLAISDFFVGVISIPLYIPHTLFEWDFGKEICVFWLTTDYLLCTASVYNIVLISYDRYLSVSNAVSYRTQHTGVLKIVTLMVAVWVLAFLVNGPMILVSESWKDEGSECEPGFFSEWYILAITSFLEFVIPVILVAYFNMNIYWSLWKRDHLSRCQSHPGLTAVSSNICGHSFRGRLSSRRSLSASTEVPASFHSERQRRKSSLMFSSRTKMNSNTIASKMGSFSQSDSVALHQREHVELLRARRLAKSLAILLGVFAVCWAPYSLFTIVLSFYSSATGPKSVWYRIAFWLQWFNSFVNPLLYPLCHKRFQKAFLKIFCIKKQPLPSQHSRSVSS
T3 sequence (P25021 whole entry, the tested form may be a part): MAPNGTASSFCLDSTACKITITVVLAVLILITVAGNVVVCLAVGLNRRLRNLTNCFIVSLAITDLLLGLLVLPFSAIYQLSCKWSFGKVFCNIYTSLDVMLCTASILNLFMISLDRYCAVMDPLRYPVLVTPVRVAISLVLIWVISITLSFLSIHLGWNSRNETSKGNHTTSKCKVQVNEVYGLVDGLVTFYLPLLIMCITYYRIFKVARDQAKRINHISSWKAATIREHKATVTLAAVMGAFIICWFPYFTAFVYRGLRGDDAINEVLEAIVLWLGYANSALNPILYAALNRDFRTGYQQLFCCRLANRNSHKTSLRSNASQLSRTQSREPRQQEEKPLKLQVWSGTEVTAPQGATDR
Chain of Histamine H1 receptor (P31389 whole entry): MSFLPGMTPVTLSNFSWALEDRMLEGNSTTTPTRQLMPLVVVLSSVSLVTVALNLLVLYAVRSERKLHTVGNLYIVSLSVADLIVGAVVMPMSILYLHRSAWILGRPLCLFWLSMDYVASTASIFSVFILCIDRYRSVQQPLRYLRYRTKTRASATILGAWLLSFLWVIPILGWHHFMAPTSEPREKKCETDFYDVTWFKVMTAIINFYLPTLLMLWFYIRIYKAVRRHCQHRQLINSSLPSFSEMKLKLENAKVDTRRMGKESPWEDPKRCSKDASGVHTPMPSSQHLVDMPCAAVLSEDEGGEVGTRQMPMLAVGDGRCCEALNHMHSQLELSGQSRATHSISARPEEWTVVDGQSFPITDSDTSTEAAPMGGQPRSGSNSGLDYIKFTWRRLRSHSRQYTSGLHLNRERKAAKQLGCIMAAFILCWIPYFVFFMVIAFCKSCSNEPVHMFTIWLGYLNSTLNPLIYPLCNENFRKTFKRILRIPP

| Structure (SMILES) | Intrinsic activity [3] | Intrinsic activity [4] | pKb [5] | pKb [7] | pKb [8] | Intrinsic activity [9] | Intrinsic activity [10] | Intrinsic activity [11] | pKb [12] | pKb [14] | other results |
| --- | --- | --- | --- | --- | --- | --- | --- | --- | --- | --- | --- |
| Cc1nc(N)sc1CCCNC(=N)NC(=O)CC(C)c1ccccc1 (centres undefined) | – | – | – | – | – | – | – | – | – | – | pD'2 [1]: < 4.5; Kb [2]: > 31600 nM |
| CC(CC(=O)/N=C(\N)NCCCc1cccnc1)c1ccccc1 (centres undefined) | -0.01 | -0.11 | < 5 | 5.27 | < 5 | – | – | – | – | – | pD'2 [1]: 4.22; pKb [6]: < 5; Kb [2]: > 31600 nM |
| CN/C(=N\C#N)NCCCCNc1ccccn1 | – | – | – | – | < 5 | -0.11 | 0.03 | -0.1 | < 5 | < 5 | pEC50 [13]: inactive |
| CN/C(=N\C#N)NCCNc1nccc(N)n1 | – | – | – | – | – | -0.11 | – | -0.16 | < 5 | < 5 | pEC50 [13]: inactive; pEC50 [15]: inactive |
| CN/C(=N\C#N)NCCCNc1nccc(N)n1 | – | – | – | – | < 5 | – | 0.03 | -0.24 | – | < 5 | pEC50 [13]: inactive; pEC50 [16]: inactive |
| S=C(NC1CCCCC1)N1CCC(c2cnc[nH]2)CC1 | – | – | – | – | – | – | – | – | – | – | Intrinsic activity [17]: -0.95 |
| N/C(=N\C(=O)CC(c1ccccc1)c1ccccc1)NCCCn1ccnc1 | -0.07 | -0.07 | < 5 | 5.82 | < 5 | – | 0.01 | – | – | – | pKb [6]: < 5; Kb [18]: 2340 nM |
| CN/C(=N\C#N)NCCCCNc1nc(N)n[nH]1 | – | – | – | – | – | – | – | – | – | – | pEC50 [19]: inactive; pEC50 [13]: inactive; pEC50 [15]: inactive; pEC50 [16]: inactive |
| CN/C(=N\C#N)NCCCNc1ccccn1 | – | – | – | – | – | -0.13 | – | -0.03 | < 5 | < 5 | pEC50 [13]: inactive; pEC50 [15]: inactive |
| CC(CC(=O)/N=C(\N)NCCCc1ccc(CN(C)C)o1)c1cccs1 (centres undefined) | -0.73 | -0.12 | 5.77 | 6.51 | – | – | – | – | – | – | Intrinsic activity [17]: -0.14; pKb [6]: < 5 |
| N/C(=N\C(=O)CC(c1ccccc1)c1ccccc1)NCCCc1ncc[nH]1 | -0.33 | -0.04 | 5.47 | 6.13 | 5.07 | – | 0.04 | – | – | – | Intrinsic activity [17]: -0.08; pKb [6]: 5.85 |
| CN(C)Cc1ccc(CCCN/C(N)=N/C(=O)CC(c2ccccc2)c2ccccc2)o1 | -0.65 | -0.16 | 5.89 | 7.03 | 5.11 | – | -0.02 | – | – | – | Intrinsic activity [17]: -0.16; pKb [6]: < 5 |
| CC(CC(=O)/N=C(\N)NCCCc1ncc[nH]1)c1cccs1 (centres undefined) | -0.46 | 0.04 | 5.35 | 5.26 | – | – | – | – | – | – | Intrinsic activity [17]: 0.5; EC50 [20]: 776 nM |
| Cc1nc(CCCCN/C(=N\C#N)NCCSc2ccccc2)c[nH]1 | – | – | – | – | < 5.3 | -0.24 | -0.01 | -0.47 | 6.21 | < 5 | Intrinsic activity [21]: -0.05; EC50 [13]: 16200 nM |
| CN/C(=N/C#N)NCCCCc1cnn[nH]1 | – | – | – | – | – | – | – | – | – | – | pEC50 [19]: inactive; pEC50 [13]: inactive; pEC50 [15]: inactive; pEC50 [16]: inactive |
| N#C/N=C(/NCCCNc1ccccn1)NCCSc1ccccc1 | – | – | – | – | < 5 | -0.1 | 0.02 | -0.21 | < 5 | < 5 | Intrinsic activity [21]: -0.12; pKb [22]: < 5 |
| N#C/N=C(\NCCNc1ccnc(N)n1)NCCSc1ccccc1 | – | – | – | – | < 5 | -0.83 | -0.02 | -1.03 | 5.43 | 5.54 | Intrinsic activity [21]: -0.07; pKb [22]: < 5 |
| CN/C(=N/C#N)NCCCCc1c[nH]c(C)n1 | – | – | – | – | < 5 | -0.23 | 0.01 | -0.13 | < 5 | < 5 | Intrinsic activity [21]: 0.04; pKb [22]: < 5 |
| Cc1nccn1CCCCCN/C(=N\C#N)NCCSc1ccccc1 | – | – | – | – | < 5 | -0.05 | 0.03 | -0.42 | < 5 | < 5 | Intrinsic activity [21]: -0.08; pKb [22]: < 5 |
| N/C(=N\C(=O)CC(c1ccccc1)c1ccccc1)NCCCc1cn[nH]c1 | -0.02 | 0.08 | < 5 | 5.42 | 5.06 | – | 0.06 | – | – | – | EC50 [23]: 363 nM; pKb [6]: < 5; Kb [18]: 2570 nM; Efficacy [24]: 41% |
| CC(CC(=O)/N=C(\N)NCCCc1c[nH]cn1)c1ccccc1 (centres undefined) | 0.24 | 0.87 | – | – | – | – | – | – | – | – | Intrinsic activity [17]: 0.84; Efficacy [24]: 99% |
